Consider 16 compounds from patent US8759332B2, “Hepatitis C virus inhibitors” (Enanta Pharmaceuticals, Inc., priority 2009, dated 2014).

Broadly, the EC50 is the concentration giving half of the maximal effect.

This experiment deals with HCV 1b genotype replicon. Put plainly: HCV replicon assay (qRT-PCR or luciferase), genotype 1b. The settings on record: Hepatitis C virus, read-out: Genotype-1b replicon EC50 Range. The format is cell-based. The text has this:
HCV replicon cell lines (kindly provided by R. Bartenschlager) isolated from colonies as described by Lohman et. al. (Lohman et al. (1999) Science 285: 110-113, expressly incorporated by reference in its entirety) and used for all experiments. The HCV replicon has the nucleic acid sequence set forth in EMBL Accession No.: AJ242651, the coding sequence of which is from nucleotides 1801 to 8406.
The coding sequence of the published HCV replicon was synthesized and subsequently assembled in a modified plasmid pBR322 (Promega, Madison, Wis.) using standard molecular biology techniques. One replicon cell line (“SGR 11-7”) stably expresses HCV replicon RNA which consists of (i) the HCV 5′UTR fused to the first 12 amino acids of the capsid protein, (ii) the neomycin phosphotransferase gene (neo), (iii) the IRES from encephalomyocarditis virus (EMCV), and (iv) HCV NS2 to NS5B genes and the HCV 3′UTR. Another replicon cell line (“Huh-luc/neo-ET”) described by Vrolijk et. al. (Vrolijk et. al. (2003) Journal of Virological Methods 110:201-209, expressly incorporated by reference in its entirety) stably expresses HCV replicon RNA which consists of (i) the HCV 5′UTR fused to the first 12 amino acids of the capsid protein, (ii) the firefly luciferase reporter gene, (iii) the ubiquitin gene, (iv) the neomycin phosphotransferase gene (neo), (v) the IRES from encephalomyocarditis virus (EMCV), and (vi) HCV NS3 to NS5B genes that harbor cell culture adaptive mutations (E1202G, T12801, K1846T) and the HCV 3′UTR.
These cell lines were maintained at 37° C., 5% CO2, 100% relative humidity in DMEM (Cat#11965-084, Invitrogen), with 10% fetal calf serum (“FCS”, Invitrogen), 1% non-essential amino acids (Invitrogen), 1% of Glutamax (Invitrogen), 1% of 100× penicillin/streptomycin (Cat#15140-122, Invitrogen) and Geneticin (Cat#10131-027, Invitrogen) at 0.75 mg/ml or 0.5 mg/ml for 11-7 and Huh-luc/neo-ET cells, respectively.
EC50 values of single agent compounds and combinations were determined by HCV RNA detection using quantitative RT-PCR, according to the manufacturer's instructions, with a TAQMAN® One-Step RT-PCR Master Mix Reagents Kit (Cat# AB 4309169, Applied Biosystems) on an ABI Model 7500 thermocycler. The TaqMan primers used for detecting and quantifying HCV RNA were obtained from Integrated DNA Technologies. HCV RNA was normalized to GAPDH RNA levels in drug-treated cells, which was detected and quantified using the Human GAPDH Endogenous Control Mix (Applied Biosystems, AB 4310884E). Total cellular RNA was purified from 96-well plates using the RNAqueous 96 kit (Ambion, Cat#AM1812). Chemical agent cytotoxicity was evaluated using an MTS assay according to the manufacturer's directions (Promega).
Since clinical drug resistance often develops in viral infections following single agent therapies, there is a need to assess the additive, antagonistic, or synergistic properties of combination therapies. We use the HCV replicon system to assess the potential use of the compound of the present invention or in combination therapies with Interferon alpha, cyclosporine analogs and inhibitors targeting other HCV proteins. The acute effects of a single or combinations of drugs are studied in the “Huh-luc/neo-ET” replicon with each chemical agent titrated in an X or Y direction in a 6 point two-fold dilution curve centered around the EC50 of each drug. Briefly, replicon cells are seeded at 7,000 cells per well in 90 ul DMEM (without phenol red, Invitrogen Cat.#31053-036) per well with 10% FCS, 1% non-essential amino acids, 1% of Glutamax and 1% of 100× penicillin/streptomycin and incubated overnight at 37° C., 5% CO2, 100% relative humidity. […]
In general terms: In antiviral work, replicon cells carry a viral genome segment that copies itself.

Each structure is given as a SMILES string.

On to `COC(=O)N[C@H](C(=O)N[C@H]1CCC[C@@H]1Nc1ncc(-c2ccc3cc(-c4c[nH]c([C@@H]5CCCN5C(=O)[C@@H](NC(=O)OC)C(C)C)n4)ccc3c2)cn1)C(C)C` (racemic) [373a and 373b], for which the EC50 is less than 1 nM.

Take `COC(=O)N[C@H](C(=O)N1CCC[C@H]1CNc1ncc(-c2ccc3cc(-c4c[nH]c([C@@H]5CCCN5C(=O)[C@@H](NC(=O)OC)C(C)C)n4)ccc3c2)cn1)C(C)C` [Example 83]: the EC50 is more than 10 nM.

For `COC(=O)N[C@H](C(=O)N1CCC[C@H]1CNc1ncc2cc(-c3ccc(-c4c[nH]c([C@@H]5CCCN5C(=O)[C@@H](NC(=O)OC)C(C)C)n4)cc3)ccc2n1)C(C)C` [Example 294], the EC50 was less than 1 nM.

In the case of `COC(=O)N[C@H](C(=O)N1CCC[C@H]1CNc1ccc(-c2ccc3cc(-c4c[nH]c([C@@H]5CCCN5C(=O)[C@@H](NC(=O)OC)C(C)C)n4)ccc3c2)cn1)C(C)C` [Example 296], the EC50 was less than 1 nM.

With `COC(=O)N[C@H](C(=O)N1CCC[C@H]1CNc1nc2ccc(-c3ccc(-c4c[nH]c([C@@H]5CCCN5C(=O)[C@@H](NC(=O)OC)C(C)C)n4)cc3)cc2s1)C(C)C` [Example 305], the 50% effective concentration (EC50) is less than 1 nM.

Turning to `COC(=O)N[C@H](C(=O)N1CCC[C@H]1CNc1ncc(C#Cc2ccc3nc([C@@H]4CCCN4C(=O)[C@@H](NC(=O)OC)C(C)C)[nH]c3c2)cn1)C(C)C` [Example 313], the EC50 is more than 10 nM.

With `COC(=O)N[C@H](C(=O)N1CCC[C@H]1CNc1ncc2cc(C#Cc3ccc4[nH]c([C@@H]5CCCN5C(=O)[C@@H](NC(=O)OC)C(C)C)nc4c3)ccc2n1)C(C)C` [Example 322], the EC50 was in the range of 1 to 10 nM.

On to `COC(=O)N[C@H](C(=O)N1CCC[C@H]1CNc1ncc(-c2ccc(-c3cnc(NC[C@@H]4CCCN4C(=O)[C@@H](NC(=O)OC)C(C)C)nc3)cc2)cn1)C(C)C` [Example 370], for which the EC50 was more than 10 nM.

For the compound `COC(=O)N[C@H](C(=O)N1CCC[C@H]1CNc1nc2ccc(-c3ccc4nc(NC[C@@H]5CCCN5C(=O)[C@@H](NC(=O)OC)C(C)C)sc4c3)cc2s1)C(C)C` [Example 377], the EC50 was more than 10 nM.

As to `COC(=O)N[C@H](C(=O)N1CCC(Nc2ncc(-c3ccc4cc(-c5c[nH]c([C@@H]6CCCN6C(=O)[C@@H](NC(=O)OC)C(C)C)n5)ccc4c3)cn2)C1)C(C)C` (stereo partly shown) [Example 382], the EC50 was in the range of 1 to 10 nM.

In the case of `COC(=O)N[C@H](C(=O)N1CCC(Nc2ncc(-c3ccc(-c4c[nH]c([C@@H]5CCCN5C(=O)[C@@H](NC(=O)OC)C(C)C)n4)cc3)cn2)C1)C(C)C` (stereo partly shown) [Example 384], the 50% effective concentration (EC50) was in the range of 1 to 10 nM.

As to `COC(=O)N[C@H](C(=O)N1CCC[C@H]1CNc1nc2ccc(-c3ccc4cc(-c5c[nH]c([C@@H]6CCCN6C(=O)[C@@H](NC(=O)OC)C(C)C)n5)ccc4c3)cc2s1)C(C)C` [Example 386], the concentration for a half-maximal effect (EC50) was less than 1 nM.

On to `CCC(CNc1ncc(-c2ccc3cc(-c4c[nH]c([C@@H]5CCCN5C(=O)[C@@H](NC(=O)OC)C(C)C)n4)ccc3c2)cn1)NC(=O)[C@@H](NC(=O)OC)C(C)C` (stereo partly shown) [Example 388], for which the EC50 was more than 10 nM.

`CCC(CNc1ncc(-c2ccc3cc(-c4c[nH]c([C@@H]5CCCN5C(=O)[C@@H](NC(=O)OC)C(C)C)n4)ccc3c2)cn1)N(C)C(=O)[C@@H](NC(=O)OC)C(C)C` (stereo partly shown) [Example 390]: the EC50 fell in the range of 1 to 10 nM.

Consider `COC(=O)N[C@H](C(=O)N1CCC[C@@H]1CNc1ncc(-c2ccc3cc(-c4cnc([C@@H]5CCCN5C(=O)[C@@H](NC(=O)OC)C(C)C)[nH]4)ccc3c2)cn1)C(C)C` [Example 393], for which the EC50 lay within 1 to 10 nM.

Consider `COC(=O)N[C@H](C(=O)N1CCC[C@H]1CNc1ncc(C#Cc2ccc(-c3cnc([C@@H]4CCCN4C(=O)[C@@H](NC(=O)OC)C(C)C)[nH]3)cc2)cn1)C(C)C` [Example 394], for which the EC50 is more than 10 nM.
